This note sets out measurements from PubChem BioAssay (NCI).

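Compound exposure: 48 hours, 5 concentrations, 96-well plates. TGI denotes the concentration required for complete inhibition of growth.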

Test in all cases: DTP human tumour cell line panel, 48 h
In assay [1] the test system is MDA-MB-231 breast.
The subject of assay [2] is SF-539 CNS.
Assay [3] concerns HT29 colon.
Assay [4] concerns COLO 205 colon.
In assay [5] the test system is IGROV1 ovarian.
In assay [6] the test system is LOX IMVI melanoma.
The test system of assay [7] is K-562 leukemia.
In assay [8] the test system is NCI-H226 lung.
Assay [9] deals with LXFL 529 NSCLC.
Assay [10] deals with DLD-1 colon.
In assay [11] the test system is KM20L2 colon.
The subject of assay [12] is SNB-78 CNS.

What is called TGI is the concentration giving total growth inhibition. Take `CN=C(Nc1cccc(C(F)(F)F)c1)SCc1ccc(N=C=S)cc1`: the TGI in assay [1] amounted to 32.3 µM; in assay [2], 31.5 µM; in [3], 31.2 µM; in assay [4], 30.6 µM; in [5], 32.8 µM; in assay [6], 18.4 µM. The TGI was greater than 100 µM in assay [7] and 45 µM in assay [8].
As for `COc1cc(CNc2nc3ccccc3nc2C(=O)O)cc(OC)c1OC`, the concentration for total growth inhibition (TGI) in assay [1], in [2], in assay [3], in assay [4], in assay [5] and in assay [6] was greater than 100 µM throughout. Further, the TGI in assay [7] and in assay [8] was greater than 100 µM each time.
Regarding `CN(C)CCNC(=O)c1cccc2c(NC(CCC(N)=O)C(=O)O)c3ccccc3nc12` (centres undefined), the TGI in assay [1] came to 24.7 µM; in assay [2] it was 21.7 µM; in [3], 41.7 µM; in assay [4], 19.8 µM; in assay [5], 36.6 µM; in assay [6], 35.6 µM. Further, the concentration for total growth inhibition (TGI) in assay [7] was greater than 100 µM; in [8], 46.6 µM.
With `C=C1CC[C@@H](C)[C@](C)(CCc2ccoc2)C/C=C\C=C/1C(=O)O`, the TGI is greater than 100 µM in [1]; 42.6 µM in [2]; greater than 100 µM in assay [3]; 49.4 µM in assay [4]; greater than 100 µM in assay [5]; 57 µM in assay [6]. Moreover, the TGI in assay [7] and in assay [8] was greater than 100 µM throughout.
With `CCCc1[nH]c2ccccc2c1-c1c(CCC)[nH]c2ccccc12`, the TGI in assay [1] was 38.6 µM; in [2], 36.1 µM; in assay [3] it was 22.2 µM; in assay [4] it was 37.1 µM; in assay [5], 32.4 µM; in assay [6], 17.3 µM. In addition, the TGI is greater than 100 µM in [7] and 39.1 µM in [8].
Consider `COc1cc(Oc2nc3ccc(C(F)(F)F)cc3nc2-c2ccccc2)cc(OC)c1OC`, for which the TGI was greater than 100 µM in assay [1]; 60.8 µM in assay [2]; greater than 100 µM in [3]; greater than 100 µM in [4]; greater than 100 µM in assay [5]; greater than 100 µM in [6]. Moreover, the TGI in [7] and in assay [8] was greater than 100 µM in each case.
Take `CSc1c(C#N)c(N)n(-c2ccc(Cl)cc2)c(=O)c1C#N`: the TGI in assay [1], in assay [2], in assay [3], in [4], in assay [5] and in [6] was greater than 100 µM each time. Besides, the TGI in assay [7] and in [8] was greater than 100 µM throughout.
For the compound `C=CCC1(C)CCCN(Cc2ccccc2)C1=O` (centres undefined), the TGI in assay [1] is greater than 10 µM; in assay [2], greater than 10 µM; in [3] it was greater than 10 µM; in assay [4], greater than 10 µM; in assay [5] it was 3.41 µM; in assay [6], greater than 10 µM. The TGI in [7] and in [8] was greater than 10 µM in each case.
Consider `CO/N=C1/c2sccc2[C@H](NC(=O)C(Cc2ccccc2)NC(=O)OC(C)(C)C)[C@@H]1O` (some centres undefined), for which the TGI in assay [1], in assay [2], in assay [3], in assay [4], in assay [5] and in [6] was greater than 100 µM in each case. Also, the TGI in [7] and in assay [8] was greater than 100 µM throughout.
`CN(CCCNC(=O)c1cc(-c2ccccc2)nc2ccccc12)CCCNC(=O)c1cc(-c2ccccc2)nc2ccccc12`: the TGI in [1] came out at 7.93 µM; in assay [2], 4.67 µM; in assay [3] it was 3.46 µM; in [4], 3.14 µM; in assay [5], 13.7 µM; in [6], 3.56 µM. Besides, the TGI in assay [7] amounted to 4.69 µM; in [8] it was 10.7 µM.
As to `CC1CC(C#N)=C2NCCN2C1=O` (centres undefined), the TGI in assay [1] was greater than 100 µM; in assay [2], greater than 100 µM; in assay [3], greater than 100 µM; in assay [4] it was 37.4 µM; in [5], greater than 100 µM; in assay [6], greater than 100 µM. Moreover, the TGI in assay [7] and in assay [8] was greater than 100 µM each time.
In the case of `CCN(CC)C1Oc2cc3c(cc2C(c2cccc(OC)c2OC)C1C)OCO3` (centres undefined), the TGI in [1] was found to be 35.4 µM; in assay [2], 28.2 µM; in assay [3], 24.8 µM; in assay [4] it was 17 µM; in assay [5], 29.3 µM; in assay [6], 21.6 µM. Further, the TGI is 14.4 µM in [7] and 9.24 µM in [8].
For the compound `O=C1Cc2c([nH]c3ccc(C(=O)O)cc23)-c2ccccc2N1`, the TGI in assay [1], in assay [2], in assay [3], in [4], in assay [5] and in assay [6] was greater than 100 µM throughout. Further, the TGI in assay [7] and in [8] was greater than 100 µM each time.
For the compound `COc1ccc(CNc2cc(=O)n(C)c(=O)[nH]2)cc1`, the TGI in [1], in assay [2], in [3], in [4], in [5] and in assay [6] was greater than 100 µM each time. Besides, the TGI in [7] and in assay [8] was greater than 100 µM each time.
Turning to `CN(C)CCc1c2c(nc3ccccc13)C(=O)c1cccnc1C2=O`, the total growth inhibition concentration (TGI) came out at 26.5 µM in assay [1]; 0.671 µM in [2]; 8.35 µM in assay [3]; 4.91 µM in assay [4]; 2.14 µM in assay [5]; 0.13 µM in [6]. Also, the values for the TGI in assay [7] and in assay [8] were greater than 29.1 µM and 0.473 µM, respectively.
`O=[N+]([O-])c1ccc(C(O)(C#CCN2CCCC2)c2ccccc2)cc1` (centres undefined): the total growth inhibition concentration (TGI) is greater than 100 µM in assay [1]; greater than 100 µM in [2]; 34 µM in assay [3]; 37.8 µM in assay [4]; greater than 100 µM in assay [5]; 43.9 µM in [6]. In addition, the TGI was 42.6 µM in assay [7] and greater than 100 µM in assay [8].
For `COC(=O)C(Cc1c[nH]c2ccccc12)N=C1Nc2ccncc2S(=O)(=O)N1c1cccc(OC(C)C)c1` (centres undefined), the TGI in [1], in [2], in assay [3], in assay [4], in assay [5] and in assay [6] was greater than 100 µM in each case. Besides, the concentration for total growth inhibition (TGI) in [7] and in assay [8] was greater than 100 µM each time.
As for `c1ccc(CC2COC(c3cccs3)=N2)cc1` (centres undefined), the TGI in [1], in [2], in assay [3], in assay [4], in [5] and in assay [6] was greater than 100 µM each time. Also, the TGI in assay [7] and in assay [8] was greater than 100 µM throughout.
For the compound `COc1cccc(/N=N/C(=NNC(=O)c2ccc(C)cc2)c2ccc(N(C)C)cc2)c1`, the TGI in assay [1], in assay [2], in assay [3], in assay [4], in assay [5] and in [6] was greater than 100 µM each time. The TGI in [7] and in assay [8] was greater than 100 µM throughout.
With `O=C1c2c(Br)sc(Br)c2[C@@H](NC(=O)C(F)(F)F)C1Br` (some centres undefined), the TGI in assay [1] is 6.06 µM; in assay [2] it was 6.82 µM; in [3], 5.77 µM; in assay [4], 4.02 µM; in assay [5], 10.5 µM; in assay [6], 3.24 µM. For the same compound, the TGI was found to be 4.17 µM in assay [7] and 15.1 µM in [8].
For `COC(=O)C1CCC(=O)N1C(c1ccc2c(c1)OCO2)c1cc(OC)c(OC)c(OC)c1` (centres undefined), the TGI in assay [1], in assay [2], in [3], in assay [4], in assay [5] and in [6] was greater than 100 µM in each case. For the same compound, the TGI in assay [7] and in [8] was greater than 100 µM in each case.
Consider `O=C(c1ccccc1)c1c(CC(O)c2ccncc2)n(C(=O)c2ccccc2)c2ccccc12` (centres undefined), for which the TGI was 45.9 µM in assay [9]; 32.1 µM in assay [2]; greater than 100 µM in [10]; 33.2 µM in [3]; 33.7 µM in assay [4]; 40.5 µM in [5]. Also, the concentration for total growth inhibition (TGI) in assay [11] worked out at 34 µM; in assay [8], 30.8 µM.
Regarding `Clc1ccc(C2ON=C(c3ccccc3)N2C23CC4CC(CC(C4)C2)C3)cc1` (centres undefined), the TGI in assay [1], in assay [2], in [3], in assay [4], in assay [5] and in assay [6] was greater than 10 µM each time. Besides, the TGI in [7] and in assay [8] was greater than 10 µM each time.
On to `N#Cc1nc(C#N)n(S(=O)(=O)c2ccccc2)c1NS(=O)(=O)c1ccccc1`, for which the TGI in assay [1], in [2], in assay [3], in [4], in [5] and in [6] was greater than 100 µM throughout. In addition, the TGI in assay [7] and in [8] was greater than 100 µM each time.
In the case of `CC(C)(C)NC(=O)CCC1C(C(=O)NC(C)(C)C)C2(Cl)C(Cl)=C(Cl)C1(Cl)C2(Cl)Cl` (centres undefined), the TGI in [1], in assay [2], in assay [3], in [4], in assay [5] and in [6] was greater than 100 µM throughout. Further, the TGI in assay [7] and in assay [8] was greater than 100 µM in each case.
Regarding `CCc1ccc2c(c1)N(CC(C)CN(C)C)c1ccccc1S2` (centres undefined), the TGI in assay [1] was 17.3 µM; in [2], 24.1 µM; in assay [3], 12.5 µM; in assay [4] it was 8.47 µM; in [5], 15 µM; in assay [6], 10.3 µM. Moreover, the TGI in assay [7] worked out at 3.5 µM; in assay [8] it was 25.5 µM.
For the compound `COc1ccc(C2=NOC(N)(c3ccc(OC)cc3)C2)cc1` (centres undefined), the TGI in [1], in [2], in assay [3], in assay [4], in [5] and in [6] was greater than 100 µM throughout. Further, the TGI in [7] and in assay [8] was greater than 100 µM in each case.
In the case of `Nc1ncnc2c1ncn2[C@@H]1O[C@H](COC(c2ccccc2)(c2ccccc2)c2ccccc2)[C@@H](OC(=S)Oc2ccccc2)[C@@H]1F`, the TGI in assay [1] came to 23.7 µM; in [2], 20.9 µM; in assay [3], 22.7 µM; in assay [4], 24.8 µM; in assay [5] it was 10.8 µM; in assay [6], 14.1 µM. Besides, the results for the TGI in [7] and in [8] were greater than 100 µM and 31.8 µM, respectively.
Take `COC(=O)C(=O)Cc1nc2ccccc2o1`: the total growth inhibition concentration (TGI) in [9], in [12], in assay [2], in assay [10], in assay [3] and in assay [6] was greater than 100 µM each time. In [7], the TGI is greater than 100 µM.
Take `CC(=O)OCC1OC(OCCCOP(=S)(OCCC#N)OCC2OC(n3ccc(N)nc3=O)C(OC(=O)c3ccccc3)C2OC(=O)c2ccccc2)C(OC(C)=O)C(OC(C)=O)C1OC(C)=O` (centres undefined): the TGI in assay [1], in assay [2], in assay [3], in [4], in [5] and in assay [6] was greater than 100 µM in each case. Besides, the TGI in assay [7] and in assay [8] was greater than 100 µM each time.
Take `CCOC(=O)c1c[nH]c2ccc3c(c2c1=O)S(=O)(=O)CC3` (tested in a mixture with another compound): the TGI in assay [12], in assay [2], in assay [10], in assay [3], in assay [4] and in assay [5] was greater than 100 µM each time. Also, the TGI in assay [11], in assay [6], in [7] and in [8] was greater than 100 µM each time.
